Where two headings read alike, the source gives them in different places.
How the values were obtained:
KP1005 (CTX-M-14) = assay: Potentiation of aztreonam, strain KP1005; type: cell-based
ec308 (SHV-5) [1] = assay: Potentiation of aztreonam, strain ec308; type: cell-based; conditions: minimum BLI concentration inhibiting growth with 4 μg/mL aztreonam
ec302 (TEM-10) = assay: Potentiation of aztreonam, strain ec302; type: cell-based
KP1004 (K-2) = assay: Potentiation of aztreonam, strain KP1004; type: cell-based; conditions: minimum BLI concentration inhibiting growth with 4 μg/mL aztreonam
ECL1002 = assay: Potentiation of aztreonam, strain ECL1002; type: cell-based; conditions: minimum BLI concentration inhibiting growth with 4 μg/mL aztreonam
ec308 (SHV-5) [2] = assay: Potentiation of tigemonam, strain ec308; type: cell-based; conditions: minimum BLI concentration inhibiting growth with 4 μg/mL tigemonam
EC1010 (CMY-6) = type: cell-based
SHV-12 = SHV-12 (Klebsiella pneumoniae, UniProt P0AD64, E235K/G234S/L31Q); assay: Inhibition of nitrocefin cleavage by purified SHV-12; type: biochemical
Method in brief: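 Readout: nitrocefin hydrolysis, A490 recorded every 10 sec over 10 min. Enzyme and inhibitor (varied concentrations) preincubated 10 min, RT, in reaction buffer before substrate addition.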

PAM1032/KPC-2 = assay: Biapenem potentiation in PAM1032/KPC-2 (MexAB-OprM overexpressed); type: cell-based, Pseudomonas aeruginosa
Protocol: (§1) Efflux of BLIs from Pseudomonas aeruginosa by the MexAB-OprM efflux pump was also evaluated. […] Due to expression of KPC-2 both strains became resistant to biapenem. […] Potency of BLIs to potentiate biapenem in these strains was determined. […] The ratio of MPC64 values for each BLI in PAM1032/KPC-2 (efflux proficient) and PAM1154/KPC-2 (efflux deficient) was determined to generate the Efflux Index (EI).

PAM1154/KPC-2 = assay: Biapenem potentiation in PAM1154/KPC-2 (MexAB-OprM lacking); type: cell-based, Pseudomonas aeruginosa
Protocol: as §1

Plasmin = biological target: T1, Plasmin (Homo sapiens, UniProt P00747); assay: Serine protease inhibition: plasmin; type: biochemical, mammalian; conditions: Table 8A, class symbols; read-out: IC50 Plasmin
T1 construct: Plasmin; MPBio; 19419890; purchased MPBio 19419890
Protocol: (§2) The effect of selected BLIs on the enzymatic activity of some common mammalian serine proteases was evaluated.
(§3) 50 μl of the diluted enzyme was mixed with 50 μl of inhibitor at various concentrations and 50 μl of corresponding buffer (Table 7). Reaction mixtures were incubated for 10 min at 37° C. Subsequently, 50 μl of corresponding substrate (Table 7) was added and absorbance or fluorescence was monitored for 30 min on SpectraMax M2 plate reader (Molecular Devices). 4-(2-Aminoethyl)benzenesulfonyl fluoride hydrochloride (AEBSF) and leupeptin were used as positive controls. Rates of reaction were calculated and presented relative to “no treatment” control.

Elastase = biological target: T2, Elastase (Sus scrofa, UniProt P00772); assay: Serine protease inhibition: elastase; type: biochemical, mammalian; conditions: Table 8A, class symbols; read-out: IC50 Elastase
T2 construct: purchased Calbiochem 324682
Protocol: as §2, §3

Chymase = biological target: T3, Chymase (Homo sapiens, UniProt P23946); assay: Serine protease inhibition: chymase; type: biochemical, mammalian; conditions: Table 8A, class symbols; read-out: IC50 Chymase
T3 construct: purchased Enzo Lifescience BML-SE281
T3 sequence (P23946 22-247): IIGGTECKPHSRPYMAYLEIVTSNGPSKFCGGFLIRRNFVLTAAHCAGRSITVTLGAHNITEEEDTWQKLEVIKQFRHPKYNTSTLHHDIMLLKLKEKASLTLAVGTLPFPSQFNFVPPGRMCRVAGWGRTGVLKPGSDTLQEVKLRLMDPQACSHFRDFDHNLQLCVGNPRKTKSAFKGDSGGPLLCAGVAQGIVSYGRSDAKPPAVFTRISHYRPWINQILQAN
Method in brief: (§4)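 Each enzyme was preincubated with inhibitor at various concentrations in its corresponding buffer for 10 min at 37° C, after which its substrate was added. Absorbance or fluorescence was followed for 30 min, and reaction rates were expressed relative to an untreated control.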

CathepsinA = biological target: T4, CathepsinA (Homo sapiens, UniProt P10619); assay: Serine protease inhibition: cathepsin A; type: biochemical, mammalian; conditions: Table 8B; read-out: IC50 CathepsinA
T4 construct: purchased R&D Systems 1049-SE
T4 sequence (P10619 29-480): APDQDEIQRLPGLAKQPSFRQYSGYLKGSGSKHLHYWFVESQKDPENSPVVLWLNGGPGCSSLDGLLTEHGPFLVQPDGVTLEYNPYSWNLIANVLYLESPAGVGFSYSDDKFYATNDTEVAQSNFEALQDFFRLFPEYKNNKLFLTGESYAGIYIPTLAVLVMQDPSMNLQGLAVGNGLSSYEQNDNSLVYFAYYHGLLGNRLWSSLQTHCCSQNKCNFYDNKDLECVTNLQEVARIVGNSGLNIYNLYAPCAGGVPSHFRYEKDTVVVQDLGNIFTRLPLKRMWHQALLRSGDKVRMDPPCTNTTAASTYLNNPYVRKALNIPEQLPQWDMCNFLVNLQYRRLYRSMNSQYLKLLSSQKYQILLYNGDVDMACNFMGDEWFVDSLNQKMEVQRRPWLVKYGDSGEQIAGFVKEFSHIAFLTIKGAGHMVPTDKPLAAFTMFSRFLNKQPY
Method in brief: as §4

CathepsinG = biological target: T5, CathepsinG (Homo sapiens, UniProt P08311); assay: Serine protease inhibition: cathepsin G; type: biochemical, mammalian; conditions: Table 8B
T5 construct: purchased EMD Millipore 219373
T5 sequence (P08311 21-244): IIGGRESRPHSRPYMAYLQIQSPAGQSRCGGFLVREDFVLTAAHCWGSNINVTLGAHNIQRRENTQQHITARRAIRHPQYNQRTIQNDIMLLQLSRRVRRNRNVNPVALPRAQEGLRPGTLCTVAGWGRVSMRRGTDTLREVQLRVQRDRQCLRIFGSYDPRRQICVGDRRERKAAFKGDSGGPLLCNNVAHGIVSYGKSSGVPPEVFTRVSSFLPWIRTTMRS
Method in brief: as §4

[3] = biological target: T6, Dipeptidyl peptidase 7 (DPP7) (Homo sapiens, UniProt Q9UHL4); assay: Serine protease inhibition: DPP7; type: biochemical, mammalian; conditions: Table 8B; read-out: IC50 DPP7
T6 construct: purchased R&D Systems 3438-SE
Protocol: as §2, §3

[4] = biological target: T7, Dipeptidyl peptidase 8 (DPP8) (Homo sapiens, UniProt Q6V1X1); assay: Serine protease inhibition: DPP8; type: biochemical, mammalian; conditions: Table 8B; read-out: IC50 DPP8
T7 construct: purchased BPS Bioscience 80080
Method in brief: as §4

[5] = biological target: T8, Dipeptidyl peptidase 9 (DPP9) (Homo sapiens, UniProt Q86TI2); assay: Serine protease inhibition: DPP9; type: biochemical, mammalian; conditions: Table 8B; read-out: IC50 DPP9
T8 construct: purchased BPS Bioscience 80090
Method in brief: as §4

KP1009 (CTX-M-15) = assay: Potentiation of tigemonam, strain KP1009; conditions: minimum BLI concentration inhibiting growth with 4 μg/mL tigemonam
[6] = nitrocefin reporter substrate, purified enzyme, read-out: Ki (SHV-12, NCF)
[7] = BLI potency to decrease biapenem MIC 64-fold, 32 to 0.5 μg/ml, efflux proficient strain

T2 sequence (P00772 27-266): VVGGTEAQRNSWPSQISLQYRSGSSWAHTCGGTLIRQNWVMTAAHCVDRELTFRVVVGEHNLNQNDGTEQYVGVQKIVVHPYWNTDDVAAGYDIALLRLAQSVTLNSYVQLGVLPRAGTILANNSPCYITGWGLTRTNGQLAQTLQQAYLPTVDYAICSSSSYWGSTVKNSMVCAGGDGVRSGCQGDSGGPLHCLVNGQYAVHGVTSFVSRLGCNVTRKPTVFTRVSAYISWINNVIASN
Sequence of SHV-12 (P0AD64 22-286 L31Q/G234S/E235K): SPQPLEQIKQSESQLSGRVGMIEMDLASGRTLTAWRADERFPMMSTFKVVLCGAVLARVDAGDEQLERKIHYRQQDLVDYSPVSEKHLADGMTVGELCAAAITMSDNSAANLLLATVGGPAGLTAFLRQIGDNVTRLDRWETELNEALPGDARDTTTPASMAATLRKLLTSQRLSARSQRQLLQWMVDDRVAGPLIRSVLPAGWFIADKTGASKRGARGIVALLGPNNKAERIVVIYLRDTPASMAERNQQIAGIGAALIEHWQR
T7 sequence (Q6V1X1 whole entry): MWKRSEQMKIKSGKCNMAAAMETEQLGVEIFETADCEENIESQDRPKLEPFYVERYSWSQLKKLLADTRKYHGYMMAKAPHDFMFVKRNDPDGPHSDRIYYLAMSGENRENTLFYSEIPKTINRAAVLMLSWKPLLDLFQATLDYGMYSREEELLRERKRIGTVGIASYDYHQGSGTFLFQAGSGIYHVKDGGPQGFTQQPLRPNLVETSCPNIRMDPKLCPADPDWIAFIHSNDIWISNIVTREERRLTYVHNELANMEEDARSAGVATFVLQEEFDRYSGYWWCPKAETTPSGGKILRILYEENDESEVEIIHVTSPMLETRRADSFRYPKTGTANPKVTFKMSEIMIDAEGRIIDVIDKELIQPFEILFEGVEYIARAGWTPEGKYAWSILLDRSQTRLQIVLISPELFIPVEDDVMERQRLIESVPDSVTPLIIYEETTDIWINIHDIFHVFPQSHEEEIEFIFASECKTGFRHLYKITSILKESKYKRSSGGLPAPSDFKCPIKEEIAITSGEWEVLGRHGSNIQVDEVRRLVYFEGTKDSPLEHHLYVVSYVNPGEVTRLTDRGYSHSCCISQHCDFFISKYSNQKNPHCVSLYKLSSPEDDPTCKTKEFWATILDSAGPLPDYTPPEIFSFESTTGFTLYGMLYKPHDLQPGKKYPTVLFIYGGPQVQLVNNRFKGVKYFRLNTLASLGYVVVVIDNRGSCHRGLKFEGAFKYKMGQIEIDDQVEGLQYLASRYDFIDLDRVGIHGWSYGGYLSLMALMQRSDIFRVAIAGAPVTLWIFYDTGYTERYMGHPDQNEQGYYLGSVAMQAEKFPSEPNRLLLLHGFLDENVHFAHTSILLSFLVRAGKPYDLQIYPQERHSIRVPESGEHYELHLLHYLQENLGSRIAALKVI
T8 sequence (Q86TI2 whole entry): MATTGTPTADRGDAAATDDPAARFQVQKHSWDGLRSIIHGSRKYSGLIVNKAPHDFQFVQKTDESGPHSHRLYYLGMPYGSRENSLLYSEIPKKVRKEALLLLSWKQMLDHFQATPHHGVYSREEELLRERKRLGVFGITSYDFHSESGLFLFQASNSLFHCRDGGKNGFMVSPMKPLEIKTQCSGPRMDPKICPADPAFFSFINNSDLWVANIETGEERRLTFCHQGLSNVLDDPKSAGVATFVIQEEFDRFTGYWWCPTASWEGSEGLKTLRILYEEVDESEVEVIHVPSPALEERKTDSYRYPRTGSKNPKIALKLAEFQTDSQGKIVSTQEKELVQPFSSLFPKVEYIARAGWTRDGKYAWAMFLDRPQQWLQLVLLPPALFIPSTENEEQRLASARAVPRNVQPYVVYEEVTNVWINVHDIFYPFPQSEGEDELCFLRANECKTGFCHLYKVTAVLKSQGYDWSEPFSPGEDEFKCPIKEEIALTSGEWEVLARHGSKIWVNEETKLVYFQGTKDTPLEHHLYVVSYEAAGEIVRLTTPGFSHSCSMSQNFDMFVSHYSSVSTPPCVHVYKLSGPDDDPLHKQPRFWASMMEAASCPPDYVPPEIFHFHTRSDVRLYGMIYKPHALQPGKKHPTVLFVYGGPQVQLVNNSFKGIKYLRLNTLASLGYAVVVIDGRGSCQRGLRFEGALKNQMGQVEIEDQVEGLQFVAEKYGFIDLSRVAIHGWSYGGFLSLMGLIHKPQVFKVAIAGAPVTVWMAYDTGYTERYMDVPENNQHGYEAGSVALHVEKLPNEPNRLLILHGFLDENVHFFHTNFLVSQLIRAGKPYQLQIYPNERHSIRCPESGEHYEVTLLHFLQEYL
T1 sequence (P00747 581-810 limits assumed, species assumed): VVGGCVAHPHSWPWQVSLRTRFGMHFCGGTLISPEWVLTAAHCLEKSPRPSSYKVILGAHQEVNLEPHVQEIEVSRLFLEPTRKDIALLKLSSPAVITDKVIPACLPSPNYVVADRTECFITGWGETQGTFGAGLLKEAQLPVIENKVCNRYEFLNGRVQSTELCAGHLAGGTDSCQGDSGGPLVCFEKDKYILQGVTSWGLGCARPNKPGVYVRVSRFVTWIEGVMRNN
T1 sequence (P00747 97-580 partner limits assumed, species assumed): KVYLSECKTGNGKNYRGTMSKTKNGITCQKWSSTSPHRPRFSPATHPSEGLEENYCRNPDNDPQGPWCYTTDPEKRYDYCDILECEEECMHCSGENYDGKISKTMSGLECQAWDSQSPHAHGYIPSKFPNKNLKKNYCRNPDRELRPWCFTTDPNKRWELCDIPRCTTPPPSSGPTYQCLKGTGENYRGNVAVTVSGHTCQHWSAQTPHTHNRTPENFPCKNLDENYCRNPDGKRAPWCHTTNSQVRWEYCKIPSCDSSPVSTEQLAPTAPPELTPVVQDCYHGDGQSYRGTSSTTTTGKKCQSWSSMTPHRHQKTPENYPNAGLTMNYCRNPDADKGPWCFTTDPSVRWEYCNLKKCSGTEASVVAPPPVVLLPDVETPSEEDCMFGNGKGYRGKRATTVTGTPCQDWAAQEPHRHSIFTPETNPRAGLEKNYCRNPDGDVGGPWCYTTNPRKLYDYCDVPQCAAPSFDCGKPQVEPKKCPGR

SMILES	AZT MPC4 CTX-M-14 KP1005 (KP1005 (CTX-M-14))	AZT MPC4 SHV-5 ec308 (ec308 (SHV-5) [1])	AZT MPC4 TEM-10 ec302 (ec302 (TEM-10))	AZT MPC4 K-2 KP1004 (KP1004 (K-2))	AZT MPC4 ECL1002 (ECL1002)	TIG MPC4 SHV-5 ec308 (ec308 (SHV-5) [2])	TIG MPC4 CMY-6 EC1010 (EC1010 (CMY-6))	Ki (SHV-12; [6]) [µM]	PAM1154/KPC-2 Biapenem MPC64 (PAM1154/KPC-2)	IC50 (Plasmin) [µM]	IC50 (Elastase) [µM]	IC50 (Chymase) [µM]	IC50 (CathepsinA) [µM]	IC50 (CathepsinG) [µM]	IC50 [3] [µM]	IC50 [4] [µM]	IC50 [5] [µM]	TIG MPC4 CTX-M-15 KP1009 (KP1009 (CTX-M-15))	PAM1032/KPC-2 Biapenem MPC64 (PAM1032/KPC-2; [7])	also measured
O=CN[C@H]1Cc2cccc(C(=O)O)c2OB1O [Compound 4, (R)-3-formamido-2-hydroxy-3,4-dihydro-2H-benzo[e][1,2]oxaborinine-8-carboxylic acid]	Y (key: X = MIC of less than 1 μg/mL; Y = MIC of 1 μg/mL to 10 μg/mL; Z = MIC of greater than 10 μg/mL)	Y (Y = MIC of 1 μg/mL to 10 μg/mL)	Y (key: X = MIC of less than 1 μg/mL; Y = MIC of 1 μg/mL to 10 μg/mL; Z = MIC of greater than 10 μg/mL)	X (X = MIC of less than 1 μg/mL)	Y (Y = MIC of 1 μg/mL to 10 μg/mL)	Y (Y = MIC of 1 μg/mL to 10 μg/mL)	X (key: X = MIC of less than 1 μg/mL; Y = MIC of 1 μg/mL to 10 μg/mL; Z = MIC of greater than 10 μg/mL)	0.001 to 0.01	X (key: X = Less than 10; Y = 10 to 40; Z Greater than 40)	> 800	> 800	> 800	> 500	15 to 500	> 500	> 500	> 500	Y (Y = MIC of 1 μg/mL to 10 μg/mL)	–	PAM1032/KPC-2 Biapenem MPC64 (PAM1032/KPC-2): X (key: X = Less than 10; Y = 10 to 40; Z Greater than 40)
[N-]=[N+]=NCC(=O)N[C@H]1Cc2cccc(C(=O)O)c2OB1O [Compound 8, (R)-3-(2-azidoacetamido)-2-hydroxy-3,4-dihydro-2H-benzo[e][1,2]oxaborinine-8-carboxylic acid]	X (key: X = MIC of less than 1 μg/mL; Y = MIC of 1 μg/mL to 10 μg/mL; Z = MIC of greater than 10 μg/mL)	X (X = MIC of less than 1 μg/mL)	Y (key: X = MIC of less than 1 μg/mL; Y = MIC of 1 μg/mL to 10 μg/mL; Z = MIC of greater than 10 μg/mL)	X (X = MIC of less than 1 μg/mL)	Y (Y = MIC of 1 μg/mL to 10 μg/mL)	Y (Y = MIC of 1 μg/mL to 10 μg/mL)	X (key: X = MIC of less than 1 μg/mL; Y = MIC of 1 μg/mL to 10 μg/mL; Z = MIC of greater than 10 μg/mL)	< 0.001	X (key: X = Less than 10; Y = 10 to 40; Z Greater than 40)	> 800	> 800	> 800	15 to 500	< 15	> 500	> 500	> 500	X (X = MIC of less than 1 μg/mL)	Y (Y = 10 to 40)	–
CSC(=O)N[C@H]1Cc2cccc(C(=O)O)c2OB1O [Compound 11, (R)-2-hydroxy-3-(methylthiocarbonylamino)-3,4-dihydro-2H-benzo[e][1,2]oxaborinine-8-carboxylic acid]	Y (key: X = MIC of less than 1 μg/mL; Y = MIC of 1 μg/mL to 10 μg/mL; Z = MIC of greater than 10 μg/mL)	X (X = MIC of less than 1 μg/mL)	Y (key: X = MIC of less than 1 μg/mL; Y = MIC of 1 μg/mL to 10 μg/mL; Z = MIC of greater than 10 μg/mL)	Y (Y = MIC of 1 μg/mL to 10 μg/mL)	Y (Y = MIC of 1 μg/mL to 10 μg/mL)	Y (Y = MIC of 1 μg/mL to 10 μg/mL)	X (key: X = MIC of less than 1 μg/mL; Y = MIC of 1 μg/mL to 10 μg/mL; Z = MIC of greater than 10 μg/mL)	–	X (key: X = Less than 10; Y = 10 to 40; Z Greater than 40)	> 800	> 800	> 800	15 to 500	15 to 500	> 500	> 500	> 500	Y (Y = MIC of 1 μg/mL to 10 μg/mL)	Z (Z Greater than 40)	Ki (SHV-12): < 0.001 µM

From US9101638B2, “Boronic acid derivatives and therapeutic uses thereof” (Rempex Pharmaceuticals, Inc., priority 2013, dated 2015)
